The results in this text go back to US9567302B2, “Carbamate compounds and of making and using same” (Abide Therapeutics, Inc., priority 2012, dated 2017).

Some results are limits rather than exact numbers.

Holding throughout (assay type): biochemical
What all share (design): from tissue

For one assay, the target named is T1, MAGL (Mus musculus, UniProt O35678).
T1 sequence (O35678 1-303): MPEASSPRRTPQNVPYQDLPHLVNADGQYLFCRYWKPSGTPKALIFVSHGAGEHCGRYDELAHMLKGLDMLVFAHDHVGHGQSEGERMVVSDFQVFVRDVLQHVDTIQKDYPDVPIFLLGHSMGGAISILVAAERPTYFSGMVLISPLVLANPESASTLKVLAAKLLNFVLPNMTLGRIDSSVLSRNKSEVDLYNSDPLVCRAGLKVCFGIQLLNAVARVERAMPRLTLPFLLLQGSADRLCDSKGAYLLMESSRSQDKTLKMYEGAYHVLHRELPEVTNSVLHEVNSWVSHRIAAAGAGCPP
In words: In vitro competitive ABPP, % inhibition at fixed concentration, MAGL. On the procedure: (§1) In Vitro Competitive Activity-Based Protein Profiling.
(§2) Proteomes (mouse brain membrane fraction or cell lysates) (50 μL, 1.0 mg/ml total protein concentration) were preincubated with varying concentrations of inhibitors at 37° C. After 30 min, FP-Rh (1.0 μL, 50 μM in DMSO) was added and the mixture was incubated for another 30 min at 37° C. Reactions were quenched with SDS loading buffer (50 μL—4×) and run on SDS-PAGE. Following gel imaging, serine hydrolase activity was determined by measuring fluorescent intensity of gel bands corresponding to MAGL, ABHD6 and FAAH using ImageJ 1.43u software.

In the next assay the target is T2, ABHD6 (Mus musculus, UniProt Q8R2Y0).
T2 sequence (Q8R2Y0 1-336): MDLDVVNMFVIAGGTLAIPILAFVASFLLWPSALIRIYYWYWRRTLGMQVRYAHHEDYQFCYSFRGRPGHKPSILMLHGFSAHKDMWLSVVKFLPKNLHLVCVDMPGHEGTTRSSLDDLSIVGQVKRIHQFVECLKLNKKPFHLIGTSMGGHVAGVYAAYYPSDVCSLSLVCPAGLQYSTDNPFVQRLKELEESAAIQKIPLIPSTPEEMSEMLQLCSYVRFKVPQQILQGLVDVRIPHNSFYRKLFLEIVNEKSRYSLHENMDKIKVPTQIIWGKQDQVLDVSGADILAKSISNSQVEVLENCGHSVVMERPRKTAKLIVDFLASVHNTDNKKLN
As to the kind of experiment: In vitro competitive ABPP, % inhibition at fixed concentration, ABHD6. The procedure: as §1, §2

In the next assay the target is T3, FAAH (Mus musculus, UniProt O08914).
T3 sequence (O08914 1-579): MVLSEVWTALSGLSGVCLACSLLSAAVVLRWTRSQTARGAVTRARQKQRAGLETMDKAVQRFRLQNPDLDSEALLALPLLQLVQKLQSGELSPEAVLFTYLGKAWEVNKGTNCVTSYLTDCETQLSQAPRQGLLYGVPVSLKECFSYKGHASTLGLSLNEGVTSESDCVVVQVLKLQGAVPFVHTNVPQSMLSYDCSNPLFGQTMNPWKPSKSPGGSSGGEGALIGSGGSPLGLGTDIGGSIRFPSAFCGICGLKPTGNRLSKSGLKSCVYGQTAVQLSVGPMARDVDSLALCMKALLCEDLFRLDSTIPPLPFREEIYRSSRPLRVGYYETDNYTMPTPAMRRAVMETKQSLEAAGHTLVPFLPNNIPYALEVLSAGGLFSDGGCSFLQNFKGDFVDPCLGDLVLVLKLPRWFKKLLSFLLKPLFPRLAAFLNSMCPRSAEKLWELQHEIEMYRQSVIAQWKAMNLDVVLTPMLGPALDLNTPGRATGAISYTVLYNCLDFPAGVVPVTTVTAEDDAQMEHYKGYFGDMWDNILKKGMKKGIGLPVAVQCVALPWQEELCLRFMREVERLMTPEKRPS
In words: In vitro competitive ABPP, % inhibition at fixed concentration, FAAH. On the procedure:
as §1, §2

What is called inhibition is the relative decrease from the control value, in per cent. Read a low inhibition as a response near the control. Take `O=C(ON1C(=O)CCC1=O)N1CCN(Cc2ccc(Cl)cc2N2CCN3CCC[C@@H]3C2)CC1` [Example 125, 2,5-Dioxopyrrolidin-1-yl 4-({2-[(8aR)-octahydropyrrolo[1,2-a]piperazin-2-yl]-4-chlorophenyl}methyl)piperazine-1-carboxylate]: the inhibition at 1 µM on MAGL is over 75%; at ABHD6, over 75%; on FAAH it was under 25%.
`CS(=O)(=O)N1CCN(C(=O)ON2C(=O)CCC2=O)CC1` [Example 126, 2,5-Dioxopyrrolidin-1-yl 4-methanesulfonylpiperazine-1-carboxylate]: the inhibition at 1 µM at MAGL is 25 to 75%; on ABHD6, under 25%; on FAAH, under 25%. In addition, the inhibition at 10 µM on MAGL, at ABHD6 and on FAAH was under 25% each time.
Consider `Cc1ccc(N2CCOCC2)c(CN2CCN(C(=O)ON3C(=O)CCC3=O)CC2)c1` [Example 127, 2,5-Dioxopyrrolidin-1-yl 4-{[5-methyl-2-(morpholin-4-yl)phenyl]methyl}piperazine-1-carboxylate], for which the inhibition at 1 µM on MAGL is 25 to 75%; at ABHD6 it was 25 to 75%; on FAAH, under 25%.
Consider `Cc1ccc(N2CCCC2)c(CN2CCN(C(=O)ON3C(=O)CCC3=O)CC2)c1` [Example 128, 2,5-Dioxopyrrolidin-1-yl 4-{[5-methyl-2-(pyrrolidin-1-yl)phenyl]methyl}piperazine-1-carboxylate], for which the inhibition at 1 µM at MAGL is 25 to 75%; on ABHD6, under 25%; on FAAH, under 25%.
With `Cn1ncc(Br)c1CN1CCN(C(=O)ON2C(=O)CCC2=O)CC1` [Example 135, 2,5-Dioxopyrrolidin-1-yl 4-((4-bromo-1-methyl-1H-pyrazol-5-yl)methyl)piperazine-1-carboxylate], the inhibition at 1 µM on MAGL is 25 to 75%; at ABHD6, 25 to 75%; at FAAH, under 25%.
Take `COc1ccc(-c2cc(CN3CCN(C(=O)ON4C(=O)CCC4=O)CC3)no2)cc1` [Example 136, 2,5-Dioxopyrrolidin-1-yl 4-((5-(4-methoxyphenyl)isoxazol-3-yl)methyl)piperazine-1-carboxylate]: the inhibition at 1 µM at MAGL was 25 to 75%; on ABHD6, 25 to 75%; on FAAH it was under 25%.
In the case of `O=C(ON1C(=O)CCC1=O)N1CCN(Cc2cc(-c3ccccc3)on2)CC1` [Example 137, 2,5-Dioxopyrrolidin-1-yl 4-((5-phenylisoxazol-3-yl)methyl)piperazine-1-carboxylate], the values for the inhibition at 1 µM on MAGL, at ABHD6 and on FAAH were 25 to 75%, 25 to 75% and under 25%, respectively.
Regarding `Cn1cc(CN2CCN(C(=O)ON3C(=O)CCC3=O)CC2)c(-c2ccccc2Cl)n1` [Example 140, 2,5-Dioxopyrrolidin-1-yl 4-{[3-(2-chlorophenyl)-1-methyl-1H-pyrazol-4-yl]methyl}piperazine-1-carboxylate], the inhibition at 1 µM on MAGL was 25 to 75%; on ABHD6, 25 to 75%; at FAAH, under 25%.
`CC(C)n1cc(CN2CCN(C(=O)ON3C(=O)CCC3=O)CC2)c(-c2ccccc2)n1` [Example 141, 2,5-Dioxopyrrolidin-1-yl 4-{[3-phenyl-1-(propan-2-yl)-1H-pyrazol-4-yl]methyl}piperazine-1-carboxylate]: the inhibition at 1 µM on MAGL was 25 to 75%; at ABHD6, 25 to 75%; at FAAH it was under 25%.
`CC(C)n1cc(CN2CCN(C(=O)ON3C(=O)CCC3=O)CC2)c(-c2ccccc2Cl)n1` [Example 142, 2,5-Dioxopyrrolidin-1-yl 4-{[3-(2-chlorophenyl)-1-(propan-2-yl)-1H-pyrazol-4-yl]methyl}piperazine-1-carboxylate]: the figures for the inhibition at 1 µM at MAGL, at ABHD6 and on FAAH were 25 to 75%, 25 to 75% and under 25%, respectively.
With `Cc1cc(CN2CCN(C(=O)ON3C(=O)CCC3=O)CC2)n(C(C)C)n1` [Example 146, 2,5-Dioxopyrrolidin-1-yl 4-{[3-methyl-1-(propan-2-yl)-1H-pyrazol-5-yl]methyl}piperazine-1-carboxylate], the inhibition at 1 µM at MAGL is 25 to 75%; at ABHD6, 25 to 75%; at FAAH, under 25%.
With `O=C(ON1C(=O)CCC1=O)N1CCN(Cc2cnc3ccccn23)CC1` [Example 147, 2,5-Dioxopyrrolidin-1-yl 4-(imidazo[1,2-a]pyridin-3-ylmethyl)piperazine-1-carboxylate], the inhibition at 1 µM at MAGL, at ABHD6 and at FAAH was under 25% throughout.
For the compound `O=C(ON1C(=O)CCC1=O)N1CCN(C(c2ccc3c(c2)OC(F)(F)O3)c2ccc3c(c2)OC(F)(F)O3)CC1` [Example 150, 2,5-Dioxopyrrolidin-1-yl 4-[bis(2,2-difluoro-2H-1,3-benzodioxol-5-yl)methyl]piperazine-1-carboxylate], the inhibition at 10 µM at MAGL is over 75%; on ABHD6, 25 to 75%; at FAAH, under 25%.
Take `Cn1ncc2cc(C(c3ccc4c(cnn4C)c3)N3CCN(C(=O)ON4C(=O)CCC4=O)CC3)ccc21` [Example 154, 2,5-dioxopyrrolidin-1-yl 4-(bis(1-methyl-1H-indazol-5-yl)methyl)piperazine-1-carboxylate]: the inhibition at 1 µM at MAGL is 25 to 75%; at ABHD6, 25 to 75%; at FAAH it was under 25%.
Turning to `O=C(ON1C(=O)CCC1=O)N1CCN(C(c2cccnc2)c2cccnc2)CC1` [Example 155, 2,5-Dioxopyrrolidin-1-yl 4-(di(pyridin-3-yl)methyl)piperazine-1-carboxylate], the inhibition at 1 µM is 25 to 75% at MAGL, under 25% on ABHD6 and under 25% at FAAH.
As for `O=C(ON1C(=O)CCC1=O)N1CCN(C(c2ccc3c(c2)OCO3)c2ccc3c(c2)OCO3)CC1` [Example 156, 2,5-Dioxopyrrolidin-1-yl 4-[bis(2H-1,3-benzodioxol-5-yl)methyl]piperazine-1-carboxylate], the inhibition at 1 µM on MAGL was 25 to 75%; at ABHD6, 25 to 75%; on FAAH, under 25%.
Turning to `O=C(ON1C(=O)CCC1=O)N1CCN(C(c2ccc3c(c2)COC3)c2ccc3c(c2)COC3)CC1` [Example 157, 2,5-Dioxopyrrolidin-1-yl 4-[bis(1,3-dihydro-2-benzofuran-5-yl)methyl]piperazine-1-carboxylate], the inhibition at 1 µM at MAGL is 25 to 75%; at ABHD6, 25 to 75%; at FAAH, under 25%.
Regarding `O=C(ON1C(=O)CCC1=O)N1CCC(C(O)(c2ccc3c(c2)COC3)c2ccc3c(c2)COC3)CC1` [Example 158, 2,5-Dioxopyrrolidin-1-yl 4-[bis(1,3-dihydro-2-benzofuran-5-yl)(hydroxy)methyl]piperidine-1-carboxylate], the inhibition at 1 µM on MAGL is 25 to 75%; on ABHD6, under 25%; at FAAH, under 25%.
In the case of `Cc1cc(-c2ccc(CN3CCN(C(=O)ON4C(=O)CCC4=O)CC3)c(C)c2)ccn1` [Example 159, 2,5-Dioxopyrrolidin-1-yl 4-{[2-methyl-4-(2-methylpyridin-4-yl)phenyl]methyl}piperazine-1-carboxylate], the inhibition at 1 µM on MAGL is 25 to 75%; at ABHD6 it was 25 to 75%; at FAAH it was under 25%.
As to `O=C(ON1C(=O)CCC1=O)N1CCN(Cc2ccc(-c3cccc(F)c3)cc2F)CC1` [Example 162, 2,5-Dioxopyrrolidin-1-yl 4-{[2-fluoro-4-(3-fluorophenyl)phenyl]methyl}piperazine-1-carboxylate], the values for the inhibition at 1 µM on MAGL, on ABHD6 and on FAAH were over 75%, over 75% and under 25%, respectively.
